Our source for the IC50 values is US5939414A, “Benzodiazepine hydrazide derivatives as inhibitors of HIV integrase” (Merck & Co., Inc., priority 1997, dated 1999).

One assay has as its target T1, HIV integrase (Human immunodeficiency virus type 1 group M subtype B, UniProt P04585).
T1 construct: HIV Integrase
As to the kind of experiment: Inhibition of strand transfer by HIV integrase. Type of assay: biochemical. The procedure:
Assay for Inhibition of Strand Transfer by HIV Integrase
Inhibition of strand transfer was conducted according to Hazuda, D. J. et al. Nucleic Acids Res., 22, 1121 (1994), hereby incorporated by reference for these purposes.

Assay [1] deals with T2, HIV-1 integrase (Human immunodeficiency virus type 1 group M subtype B, UniProt P04585). As to the kind of experiment: biochemical. Also on record: HIV-1 integrase. The procedure: HIV Integrase Assay: Substrate Cleavage
An assay for trimming of 3' end of HIV long terminal repeat terminus by HIV-1 integrase was conducted according to LaFemina, E. R. et al., J. Virol. 10, 5624 (1991), herein incorporated by reference for these purposes. To assay inhibition of HIV integrase substrate cleavage, the reaction was conducted with inhibitor having various concentrations in the range of 0.1 to 100 μM.

Assay [2] addresses T2, HIV-1 integrase. As to the kind of experiment: Assembly of HIV-1 integrase as catalytically active complex. It is filed as biochemical. On the set-up: HIV-1 Integrase. As for the experimental part: Assay for Assembly of HIV-1 Integrase as Catalytically Active Complex
Inhibition of assembly of HIV-1 Integrase was conducted according to Wolfe, A. L. et al., J. Virol. 70, 1424 (1996), herein incorporated by reference for these purposes.

On to `Cc1[nH]cnc1C(=O)NNC1=Nc2ccc(Br)cc2C(c2ccccc2Cl)=NC1` [Compound VII], for which the IC50 is 5 µM on HIV integrase, 2 µM on HIV-1 integrase [1] and 10 µM against HIV-1 integrase [2].
For `O=C(NNC1=Nc2ccccc2C(c2ccccc2)=NC1)c1cnccn1` [Compound VI], the 50% inhibitory concentration (IC50) is 2 to 3 µM against HIV integrase, 2 µM on HIV-1 integrase [1] and 5 µM against HIV-1 integrase [2].
